According to ChEMBL document CHEMBL5604063, “ASAP - DENV-2 NS2B-NS3 protease fluorescence dose response” (2024):
Several values for one entry are separate records, joined by “and”; a condition that tells them apart may be missing. Identical values can stand only once.

Key:
[1] = biological target: T1, Genome polyprotein (dengue virus type 2, UniProt P29990); assay type: functional, Thailand/16681/1984
[2] = biological target: T1, Genome polyprotein; assay type: functional, Thailand/16681/1984; remark: listed apart in the source

T1 sequence (P29990 1346-1475 limits assumed): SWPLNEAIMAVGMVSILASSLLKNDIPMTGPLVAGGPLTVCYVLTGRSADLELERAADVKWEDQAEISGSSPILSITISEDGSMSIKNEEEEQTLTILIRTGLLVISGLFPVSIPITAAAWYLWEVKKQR
T1 sequence (P29990 1476-2093 limits assumed): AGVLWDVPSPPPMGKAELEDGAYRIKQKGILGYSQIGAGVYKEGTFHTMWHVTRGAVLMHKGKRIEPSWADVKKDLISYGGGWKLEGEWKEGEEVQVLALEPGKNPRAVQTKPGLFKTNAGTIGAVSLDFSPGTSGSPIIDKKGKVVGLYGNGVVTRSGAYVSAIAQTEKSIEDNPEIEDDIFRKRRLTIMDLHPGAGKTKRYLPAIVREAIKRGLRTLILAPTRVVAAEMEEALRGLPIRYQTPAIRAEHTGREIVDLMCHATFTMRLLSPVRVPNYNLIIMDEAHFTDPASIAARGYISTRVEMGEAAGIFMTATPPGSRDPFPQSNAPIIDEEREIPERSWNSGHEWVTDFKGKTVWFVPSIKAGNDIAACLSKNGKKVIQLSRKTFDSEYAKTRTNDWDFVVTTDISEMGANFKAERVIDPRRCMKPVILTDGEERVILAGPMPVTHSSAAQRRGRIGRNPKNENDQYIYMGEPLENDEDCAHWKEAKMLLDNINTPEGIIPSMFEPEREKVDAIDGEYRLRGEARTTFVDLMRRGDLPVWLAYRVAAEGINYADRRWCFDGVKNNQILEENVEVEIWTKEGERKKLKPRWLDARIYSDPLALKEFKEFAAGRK

Compound	IC50 [1]	IC50 [2]
NCc1cccc(NC(=O)c2nn(-c3ccccc3F)cc2Br)c1	> 99.5 µM	> 100 µM
CC(=O)N1CCCc2cc(NC(=O)c3cc(C4CC4)n(C)c3C)ccc21	> 99.5 µM	> 100 µM
NCc1cccc(NC(=O)c2cc(NC(=O)OCc3ccccc3)cc(C(F)(F)F)c2F)c1	> 99.5 µM	> 100 µM
O=C(Nc1ccc2c(c1)CNC2)c1cc(F)c2[nH]ccc2c1	> 99.5 µM	> 100 µM
COC(=O)N1CCc2cc(NC(=O)c3cc(C4CC4)n(C)c3C)ccc21	> 99.5 µM	> 100 µM
C=CC[C@H](Nc1cc(Cl)cc(NC(=O)OCc2ccccc2)c1)c1cccc(CN)c1	37.5 µM	> 100 µM
C=CC[C@H](Nc1ccc2c(c1)CNC2)c1cc(Cl)cc2[nH]ncc12	14 µM and 53.1 µM	> 100 µM
Cc1c(C(=O)Nc2cc(C(=O)N3CC[C@H](O)C3)ccn2)cc(C2CC2)n1C	> 99.5 µM	> 100 µM
O=C1CCc2cc(C(=O)Nc3ccc4c(c3)CNC4)cc(F)c2N1	> 99.5 µM	> 100 µM
O=C(Nc1nc(O)c2c(n1)CNC2)c1cc(Cl)cc2[nH]ncc12	> 99.5 µM	> 100 µM
COC1(C(=O)N[C@H](CC(=O)Nc2cccc(CN)c2)c2ccc(OCc3ccccc3)c(Br)c2)CC1	> 99.5 µM	> 100 µM
NCCCc1ccnc(NC(=O)c2csc(C3CC3)n2)c1	> 99.5 µM	> 100 µM
O=C(NCC(F)F)[C@H](Nc1ccc2c(c1)CNC2)c1cc(Cl)cc2cccnc12	93 µM	128 µM and 125 µM
NCc1cccc(CCc2cc(Cl)cc(NC(=O)OCc3ccccc3)c2)c1	34.8 µM	> 100 µM
O=C(Nc1cc(-c2cccnc2)ccn1)c1cn2c(n1)CCC2	> 99.5 µM	> 100 µM
O=C(Nc1cc(Cl)cc(C(=O)Nc2cccc3c2CNC3)c1)OCc1ccccc1	> 99.5 µM	> 100 µM
CC(C)NC(=O)[C@H](Nc1ccc2c(c1)CNC2)c1cc(F)cc2[nH]ncc12	> 99.5 µM	> 100 µM
Cc1c(C(=O)NCc2ccnc(OC3CCOCC3)c2)cc(C2CC2)n1C	> 99.5 µM	> 100 µM
NCc1cccc(NC(=O)[C@@H](NC(=O)OCc2ccccc2)c2cccc(-c3ccc(N)nc3)c2)c1	> 99.5 µM	> 100 µM
CC(C)n1ncc2c(C(=O)Nc3ccc4c(c3)CNC4)cc(Cl)cc21	> 99.5 µM	> 100 µM
CC(=O)N(c1ccc2c(c1)CNC2)[C@]1(c2cc(Cl)cc(C3CC3)c2)CCCN(C)C1=O	> 99.5 µM	> 100 µM
NCc1cc(Cl)cc(C(=O)Nc2ccc3c(c2)C(=O)OC3)c1	> 99.5 µM	> 100 µM
CCCN1C(=O)[C@](Nc2ccc3c(c2)CNC3)(C(=O)NC)c2ccccc21	> 99.5 µM	> 100 µM

Compound	IC50 [1]	IC50 [2]
O=C1Cc2c(cccc2C(=O)NC2CCC3(CC2)COC3)N1	> 99.5 µM	> 100 µM
N#C[C@H](Nc1cccc(C(=O)O)c1)c1cc(Cl)cc2[nH]ncc12	> 99.5 µM	> 100 µM
CC(C)[C@H](NC(=O)c1cc(Cl)cc(NC(=O)OCc2ccccc2)c1)C(=O)O	> 99.5 µM	> 100 µM
Cc1cc(C(=O)N[C@H](CC(=O)Nc2cccc(CN)c2)c2ccc(OCc3ccccc3)c(Br)c2)sn1	16.8 µM and 25.3 µM	> 100 µM
NCc1cccc(NC(=O)[C@H]2CCc3nnc(-c4ccc(F)cc4)n3C2)c1	> 99.5 µM	> 100 µM
Clc1cccc([C@H](C#Cc2ccccc2)Nc2ccc3c(c2)CNC3)c1	> 99.5 µM	> 100 µM
NCc1cccc(/C=C/c2cc(Cl)cc(NC(=O)OCc3ccccc3)c2)c1	> 99.5 µM	> 100 µM
Cn1cc(C(F)(F)F)nc1C(=O)Nc1cc(-c2cccnc2)ccn1	> 99.5 µM	> 100 µM
O=C(O)CCc1cccc(NC(=O)c2cc(Cl)cc(NC(=O)OCc3ccccc3)c2)c1	48.4 µM	16.4 µM and 19.7 µM
Cn1cc2c(C(=O)Nc3ccc4c(c3)CNC4)cc(F)cc2n1	> 99.5 µM	> 100 µM
O=C(O)COc1cc2c(cc1Cc1c[nH]c3ccc(Cl)cc13)OCO2	> 99.5 µM	89 µM
NC(=O)N1CCc2ccc(NC(=O)c3cccc4c3CC(=O)N4)cc21	> 99.5 µM	> 100 µM
CCC[C@H](Oc1ccc(Cl)cc1C)C(=O)Nc1cccc(CN)c1	> 99.5 µM	> 100 µM
NS(=O)(=O)c1ccc(C(F)F)cc1-c1ccc2[nH]c(C(=O)O)cc2c1	> 99.5 µM	> 100 µM
CC(C)(C)c1[nH]c2ccc(F)cc2c1Cc1ccc(-c2nnn[nH]2)cc1	23.6 µM	12.1 µM
CC(C)(C)OC(=O)NCc1cc(Cl)cc(C(=O)O)c1	> 99.5 µM	> 100 µM
NCc1cccc(Oc2ccc(S(=O)(=O)Nc3ccc(Cl)cc3C(=O)NCC(F)(F)F)cc2)c1	> 99.5 µM	> 100 µM
O=C(Nc1ccc2c(c1)CNC2)c1cc(Cl)cc2[nH]c(CCc3cccnc3)nc12	44.7 µM	> 100 µM
Cc1c(CN)cccc1NS(=O)(=O)c1ccc(Oc2ccccc2Cl)cc1	> 99.5 µM	> 100 µM
O=C(NCC(F)F)[C@H](Nc1ccc2c(c1)CNC2)c1cc(Cl)ccc1Cl	> 99.5 µM	> 100 µM
O=C(Nc1cc(-c2cccnc2)ccn1)c1cn([C@H]2CCCNC2)nn1	> 99.5 µM	> 100 µM
O=C(Nc1cc(-c2cccnc2)ccn1)c1cc(C2CC2)oc1C1CC1	> 99.5 µM	> 100 µM
CNC(=O)[C@H](Nc1cccc(-c2nn[nH]n2)c1)c1cc(Cl)cc(NC(=O)OCc2ccccc2)c1	48.6 µM	28.2 µM and 21.1 µM

Compound	IC50 [1]	IC50 [2]
O=C1Cc2c(cccc2C(=O)Nc2cnn(Cc3ccncc3)c2)N1	> 99.5 µM	> 100 µM
Cc1ccc(NC(=O)c2cc(C3CC3)n(C)c2C)cc1CN	> 99.5 µM	> 100 µM
CC(C)(C)OC(=O)N1Cc2cc(NC(=O)c3cc(Cl)cc4[nH]ncc34)cc(Br)c2C1	> 99.5 µM	> 100 µM
Cc1c(C(=O)Nc2nccc3c2CNCC3)cc(C2CC2)n1C	> 99.5 µM	> 100 µM
Cc1c(C(=O)Nc2ccc([C@@H](C)N)cc2)cc(C2CC2)n1C	> 99.5 µM	> 100 µM
Cn1cc(-c2cc(CN)cc([C@@H]3C[C@H]3c3cc(Cl)cc(NC(=O)OCc4ccccc4)c3)c2)cn1	42 µM	51 µM
N[C@H]1CCCc2ccc(NC(=O)c3cc(Cl)cc(NC(=O)OCc4ccccc4)c3)cc21	> 99.5 µM	> 100 µM
O=C1Nc2ccc(C(=O)Nc3ccc4c(c3)CNC4)cc2C1=O	2.66 µM and 1.99 µM	5.35 µM and 5.79 µM
CN1Cc2ccc(NC(=O)c3cc(Cl)cc4[nH]ncc34)cc2C1	> 99.5 µM	> 100 µM
NCc1cccc(NC(=O)[C@@H](NC(=O)OCc2ccccc2)C2CCN(C(=O)C3CC3)CC2)c1	> 99.5 µM	> 100 µM
NCCc1csc2cc(C(=O)Nc3cc([C@H]4CCOC4)ccn3)ccc12	> 99.5 µM	> 100 µM
CC(C)c1occ(C(F)(F)F)c1C(=O)Nc1cccc(CN)c1	> 99.5 µM	> 100 µM
NCc1cccc(NC(=O)c2cc(Cl)cc(N3CCCC3=O)c2)c1	> 99.5 µM	> 100 µM
CSCCCNC(=O)[C@H](Nc1ccc2c(c1)CNC2)c1cc(Cl)cc(C2CC2)c1	> 99.5 µM	> 100 µM
NCc1cc(/C=C/C(=O)O)cc(NC(=O)c2cc(Cl)cc(NC(=O)OCc3ccccc3)c2)c1	94.6 µM	> 100 µM
Cc1c(C(=O)Nc2cc(CN)ccc2F)cc(C2CC2)n1C	> 99.5 µM	> 100 µM
N#C[C@H](c1cc(Cl)cc(C2CC2)c1)N1c2cnccc2C[C@H]1C(=O)O	> 99.5 µM	> 100 µM
Cn1ccc(-c2cc(CN)cc([C@@H]3C[C@H]3c3cc(Cl)cc(NC(=O)OCc4ccccc4)c3)c2)n1	62.7 µM	> 100 µM
O=C(O)c1nccn2ncc(Cc3c[nH]c4ccc(Cl)cc34)c12	> 99.5 µM	> 100 µM
O=C(O)c1cc2cc(-c3cccc([C@H]4COCCN4)c3)ccc2[nH]1	> 99.5 µM	> 100 µM
O=C([C@H](Nc1ccc2c(c1)CNC2)c1cc(Cl)cc(C2CC2)c1)N1CCOCC1	> 99.5 µM	> 100 µM
CC(C)C[C@H](NC(=O)c1cc(Cl)cc(NC(=O)OCc2ccccc2)c1)c1nnn[nH]1	74.6 µM	28.3 µM
